In patent US8420307B2, “Sperm cryoprotective media” (The Jackson Laboratory, priority 2006, dated 2013):

Test system: reactive oxygen species within cryopreserved mouse sperm
Assay: Intracellular reactive oxygen species by CM-H2DCFDA dye and flow cytometry after tert-butyl hydroperoxide challenge
Assay type: cell-based
Conditions: for level of reactive oxygen species within cryopreserved mouse sperm (relative fluorescence): C57BL/6 sperm, diluted 1:1 with solution supplemented with 954 mM MTG, 1 mM GSH or 2 mM DTT before freezing, FIGS. 7A and 7B
Description: Sperm cryopreserved in the presence and absence of the free radical scavenger, the reducing agent monothioglycerol (MTG), are loaded with the green fluorescent dye CM-H2DCFDA to measure intracellular reactive oxygen species. The sperm are challenged with varying levels of Tert-Butylhydrogen peroxide to induce oxidative damage and green fluorescence is measured using flow cytometry.
For example, the capability to reduce ROS can be tested by a dye/sperm method as described in Example 4 and also see publications by Nelid et al 2006 and Guthrie and Welch 2006. Either fresh or cryopreserved sperm can be used in this assay. For example, sperm collected from the vas deferens and epididymis of two C57BL/6J mice into 1 mL of a solution containing 3% skim milk (w/v; BD Diagnostics; cat #232100) and 18% raffinose (w/v; Sigma; cat #R7630). A fraction of the collected sperm was diluted 1:1 in the same skim milk raffinose solution while another fraction was diluted 1:1 using the skim milk raffinose solution supplemented with […] monothioglycerol (MTG; Sigma Aldrich; cat #M6145). Another set of C57BL/6J males was used to collect sperm and dilute in the skim milk raffinose solution with 1 mM glutathione (GSH; Sigma Aldrich; cat #G6013) or 2 mM dithiothreitol (DTT; Sigma Aldrich; cat #646563). The sperm was cryopreserved as described in Example 1 and stored in liquid nitrogen for at least 24 hours.
To determine if MTG, GSH or DTT can act as a free radical scavenger, the sperm were thawed and loaded with the green fluorescent dye 5-(and-6)-chloromethyl-2′,7′-dichlorodihydrofluorescein diacetate (CM-H2DCFDA; Invitrogen C6827). This dye is a cell-permeant indicator for reactive oxygen species that is nonfluorescent until removal of the acetate groups by intracellular esterases and oxidation occurs within the cell. The emission of fluorescence correlates with ROS generation as a result of DCFH oxidation. To load the sperm, at least 150 μL of sperm were thawed and diluted 1:1 in a sperm incubation media described by Bath et al. ((Bath 2003); 123 mM NaCl; 4.7 mM KCl; 0.2 mM MgSO4.7H2O; 10 mM;NaHCO3 21 mM HEPES; 0.33 mM sodium pyruvate; 4.6 mM glucose; 100 IU/mL penicillin G; 1.33 mg/mL BSA). The lyophilized dye was resuspended in dimethylsulfoxide to a concentration of 432.5 μM and then added to the cells, such that the final dye concentration was 40 μM. […] The samples were loaded onto either a FACScan (BD Biosciences; Franklin Lakes, N.J.) or FACSCalibur (BD Biosciences; Franklin Lakes, N.J.) flow cytometer and the green fluorescence was measured on at about 5,000 viable sperm. […]

Compound | level of reactive oxygen species within cryopreserved mouse sperm (relative fluorescence) | ROS in cryopreserved sperm (green fluorescence) (sperm from C57BL/6J (B6) and BALB/cByJ (BALB/cBy) mice, FIG. 3)
O[C@H](CS)[C@H](O)CS (racemic) [DTT, dithiothreitol] | limited the level of ROS | 
N[C@@H](CCC(=O)N[C@@H](CS)C(=O)NCC(=O)O)C(=O)O [GSH, reduced glutathione] | limited the level of ROS | 
OCC(O)CS (stereo not shown) [MTG, monothioglycerol] | limited the level of ROS | reduces the ROS
